The source of these data is US20250257051A1, “SUBSTITUTED PYRIMIDINE COMPOUNDS AS TYK2 INHIBITORS” (1910 Genetics Inc., priority 2022, published 2025).

Structures can show the parent of a compound that is named as a salt.

By Kd is commonly meant the constant that tells how readily two partners part at equilibrium.

human TYK2 (JH2domain-pseudokinase), sequence (P29597 556-888): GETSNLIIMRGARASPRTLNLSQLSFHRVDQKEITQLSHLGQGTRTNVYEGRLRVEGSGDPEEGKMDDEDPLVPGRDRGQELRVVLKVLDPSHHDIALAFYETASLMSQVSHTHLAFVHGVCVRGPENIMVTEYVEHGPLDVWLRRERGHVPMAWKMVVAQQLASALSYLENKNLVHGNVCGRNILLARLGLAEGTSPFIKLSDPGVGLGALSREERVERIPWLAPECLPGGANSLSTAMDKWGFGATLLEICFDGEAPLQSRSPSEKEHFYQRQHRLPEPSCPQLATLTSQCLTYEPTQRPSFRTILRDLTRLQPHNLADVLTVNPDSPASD

This assay concerns the target human TYK2 (JH2domain-pseudokinase) (Homo sapiens (Human), UniProt P29597). Kind of assay: TYK2 JH2 Domain Binding Assay (KINOMEscan competition binding). The settings on record: KINOMEscan; 11-point 3-fold dilution, top concentration 30,000 nM; Kd measurements in duplicate; read-out: TYK JH2 (Kd). A digest of the protocol:
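Competition binding of HEK293-expressed, DNA-tagged TYK2 JH2 (G556–D888)-NFkB fusion in crude extract against immobilized ligand, 1 h at room temperature, 0.9% DMSO. Bead-bound kinase quantified by qPCR; Kd from 11-point 3-fold series (top 30,000 nM), duplicate, Hill fit with slope −1.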
As for `COc1c(Nc2nc(N3CCCN(C(=O)OC(C)(C)C)CC3)ncc2C(N)=O)cccc1-c1ncc(F)cn1` [Compound 71, tert-butyl 4-(S-carbamoyl-4-((3-(5-fluoropyrimidin-2-yl)-2-methoxyphenyl)amino)pyrimidin-2-yl)-1,4-diazepane-1-carboxylate], the Kd turned out to be 470 nM.
For the compound `CNC(=O)c1cnc(N2CCCC2)nc1Nc1ccc(C(=O)N2CCOCC2)cc1` [Compound 8, N-methyl-4-((4-(morpholine-4-carbonyl)phenyl)amino)-2-(pyrrolidin-1-yl)pyrimidine-5-carboxamide], the Kd worked out at 360 nM.
`CNC(=O)c1cnc(N2CC[C@@H](C(=O)NC)C2)nc1Nc1ccc(C2CC2)nc1` [Compound 9, (R)-4-((6-cyclopropylpyridin-3-yl)amino)-N-methyl-2-(3-(methylcarbamoyl)pyrrolidin-1-yl)pyrimidine-5-carboxamide]: the Kd came to 240 nM.
Consider `NC(=O)c1cnc(N2CCCNCC2)nc1Nc1ccc(C2CC2)nc1` [Compound 46, 4-((6-cyclopropylpyridin-3-yl)amino)-2-(1,4-diazepan-1-yl)pyrimidine-5-carboxamide Hydrochloride], for which the Kd was determined as 6600 nM.
